≈ marks a conversion by molar mass, not a printed value.
Assays:
[1] = tested on: E. coli; assay: Biofilm growth assay (spreading biofilm on semi-solid agar); format: cell-based; settings: Escherichia coli; Table 3; concentration that reduces the area of the spreading biofilm by >= 85%; read-out: E. coli
Description: (§1) "Biofilm Growth Assay" refers to an assay performed on semi-solid agar surface where the bacteria collectively move out from an inoculation point. To those skilled in the art, the act of bacteria collectively moving out from an inoculation point on a semi-solid surface may be referred to as swarming or a spreading biofilm. (Anderson, et al Microbiology, 2003, 149, 37-46; Daniels, et al. FEMS Microbiology Reviews, 2004, 28, 261-289). The procedure to perform this assay is described in detail in the Examples. This type of surface motility by bacteria has been reported in the literature by those skilled in the art.
(§2) The biofilm growth assay was carried out to measure swarming or biofilm spreading on semi-solid agar media in round plates (for example, 100 × 15 mm), also referred to as Petri dishes. For E. coli, the plates contained LB medium with 0.6% agar and 0.5% glucose. P. aeruginosa plates were made with M8 agar supplemented with 0.2% glucose, 100 µM CaCl2, 1 mM MgSO4, and 0.5% Casamino acids. The agar plates of this assay consisted of 0.4% to 0.7% agar (Bacto or Noble agar), although other media may also be used as described in the literature and known to those skilled in the art. Test compounds at the desired concentration were added to the cooled, autoclaved media. Portions of the media were then poured into the plates (20 mL/plate), and the plates allowed to dry at room temperature for approximately 3 to 4 hours. Alternatively, however, plates may be dried in a laminar flow hood for approximately fifteen to twenty minutes. Overnight cultures were grown in a 37°C shaker in LB (E. coli) or TSB (P. aeruginosa). Plates were inoculated by placing 5 µL of the appropriate overnight culture in the centers of the plates. The plates then were incubated overnight at 37°C. The area of the zone of spreading bacteria was then measured and replicates are averaged. Percent inhibition was calculated as 100 × (area without compound - area with compound)/(area without compound). An active compound was considered that which reduces the area of the spreading biofilm compared to negative controls by greater than or equal to 85%. The values shown in Table 1 are the concentrations of compounds (µg/ml) tested in the biofilm growth assay that reduce the area of the spreading biofilm compared to negative controls by greater than or equal to 85% unless noted differently in Table 1. A > ("greater than" symbol) as used in Table 1 is well understood to those skilled in the art as an indication that the listed concentration was not effective at this concentration.
(§3) All of the compounds shown in Tables 2, 3, 4, and 5, below, were prepared semi-synthetically from oleanolic acid, except for Compounds 2 and 3. Compound 2 was prepared from ursolic acid. Compound 3 was prepared from hederagenin, but could also be prepared from an oleanolic acid analog with a hydroxyl at C23 or C24. These compounds were tested in the spreading biofilm assay according to the methods detailed in Example I, above. The values shown in Tables 2, 3, 4, and 5 are the concentrations of compounds tested in the biofilm growth assay that reduce the area of the spreading biofilm compared to negative controls by greater than or equal to 85%. Table 2. Compound 1 and its Analogs and their inhibitory concentrations in the biofilm growth assay as detailed in Example I, above

[2] = tested on: P. aeruginosa; assay: as above; format: cell-based; settings: Pseudomonas aeruginosa; Table 3; concentration that reduces the area of the spreading biofilm by >= 85%; read-out: P. aeruginosa
Description: as §1, §2, §3

Compound | IC85 [1] [µg/mL] | IC85 [2] [µg/mL]
CC1(C)CC[C@]2(C(=O)O)CC[C@]3(C)C(=C(c4cncnc4)CC4[C@@]5(C)Cc6c(n[nH]c6N)C(C)(C)[C@@H]5CC[C@]43C)[C@@H]2C1 (stereo partly drawn) [Compound 30, (4aS,6aS,6bR,8aR,13aR,15bS)-12-Amino-2,2,6a,6b,9,9,13a-heptamethyl-15-(pyrimidin-5-yl)-2,3,4,4a,5,6,6a,6b,7,8,8a,9,11,13,13a,13b,14,15b-octadecahydro-1H-chryseno[1,2-f]indazole-4a-carboxylic acid] | 1 (≈ 1.75 µM) | 2 (≈ 3.5 µM)
CC1(C)CC[C@]2(C(=O)O)CC[C@]3(C)C(=C(c4ccc(N)c(F)c4)CC4[C@@]5(C)Cc6c(n[nH]c6N)C(C)(C)C5CC[C@]43C)C2C1 (stereo partly drawn) [Compound 31, (4aS,6aS,6bR,13aR)-12-Amino-15-(4-amino-3-fluorophenyl)-2,2,6a,6b,9,9,13a-heptamethyl-2,3,4,4a,5,6,6a,6b,7,8,8a,9,11,13,13a,13b,14,15b-octadecahydro-1H-chryseno[1,2-f]indazole-4a-carboxylic acid] | 1 (≈ 1.66 µM) | 0.5 (≈ 0.829 µM)
CC1(C)CC[C@]2(C(=O)O)CC[C@]3(C)C(=C(c4ccoc4CN4CCOCC4)CC4[C@@]5(C)Cc6c(n[nH]c6N)C(C)(C)[C@@H]5CC[C@]43C)[C@@H]2C1 (stereo partly drawn) [Compound 32, (4aS,6aS,6bR,8aR,13aR,15bS)-12-Amino-2,2,6a,6b,9,9,13a-heptamethyl-15-(2-(morpholinomethyl)furan-3-yl)-2,3,4,4a,5,6,6a,6b,7,8,8a,9,11,13,13a,13b,14,15b-octadecahydro-1H-chryseno[1,2-f]indazole-4a-carboxylic acid] | 1 (≈ 1.52 µM) | 0.5 (≈ 0.759 µM)
CC1(C)CC[C@]2(C(=O)O)CC[C@]3(C)C(=C(c4c[nH]cc4CN4CCOCC4)CC4[C@@]5(C)Cc6c(n[nH]c6N)C(C)(C)[C@@H]5CC[C@]43C)[C@@H]2C1 (stereo partly drawn) [Compound 33, (4aS,6aS,6bR,8aR,13aR,15bS)-12-Amino-2,2,6a,6b,9,9,13a-heptamethyl-15-(4-(morpholinomethyl)-1H-pyrrol-3-yl)-2,3,4,4a,5,6,6a,6b,7,8,8a,9,11,13,13a,13b,14,15b-octadecahydro-1H-chryseno[1,2-f]indazole-4a-carboxylic acid] | 4 (≈ 6.08 µM) | 2 (≈ 3.04 µM)
CC1(C)CC[C@]2(C(=O)O)CC[C@]3(C)C(=C(c4ccsc4CN4CCOCC4)CC4[C@@]5(C)Cc6c(n[nH]c6N)C(C)(C)C5CC[C@]43C)C2C1 (stereo partly drawn) [Compound 34, (4aS,6aS,6bR,13aR)-12-Amino-2,2,6a,6b,9,9,13a-heptamethyl-15-(2-(morpholinomethyl)thiophen-3-yl)-2,3,4,4a,5,6,6a,6b,7,8,8a,9,11,13,13a,13b,14,15b-octadecahydro-1H-chryseno[1,2-f]indazole-4a-carboxylic acid] | 1 (≈ 1.48 µM) | 1 (≈ 1.48 µM)
CC1(C)CC[C@]2(C(=O)O)CC[C@]3(C)C(=C(c4ccoc4CN4CCNCC4)CC4[C@@]5(C)Cc6c(n[nH]c6N)C(C)(C)[C@@H]5CC[C@]43C)[C@@H]2C1 (stereo partly drawn) [Compound 35, (4aS,6aS,6bR,8aR,13aR,15bS)-12-Amino-2,2,6a,6b,9,9,13a-heptamethyl-15-(2-(piperazin-1-ylmethyl)furan-3-yl)-2,3,4,4a,5,6,6a,6b,7,8,8a,9,11,13,13a,13b,14,15b-octadecahydro-1H-chryseno[1,2-f]indazole-4a-carboxylic acid] | 1 (≈ 1.52 µM) | > 1
CN1CCN(Cc2occc2C2=C3[C@@H]4CC(C)(C)CC[C@]4(C(=O)O)CC[C@@]3(C)[C@]3(C)CC[C@H]4C(C)(C)c5n[nH]c(N)c5C[C@]4(C)C3C2)CC1 (stereo partly drawn) [Compound 36, (4aS,6aS,6bR,8aR,13aR,15bS)-12-Amino-2,2,6a,6b,9,9,13a-heptamethyl-15-(2-((4-methylpiperazin-1-yl)methyl)furan-3-yl)-2,3,4,4a,5,6,6a,6b,7,8,8a,9,11,13,13a,13b,14,15b-octadecahydro-1H-chryseno[1,2-f]indazole-4a-carboxylic acid] | 2 (≈ 2.98 µM) | > 1
CC1(C)CC[C@]2(C(=O)O)CC[C@]3(C)C(=C(c4ccoc4CN4CCCC4)CC4[C@@]5(C)Cc6c(n[nH]c6N)C(C)(C)C5CC[C@]43C)C2C1 (stereo partly drawn) [Compound 37, (4aS,6aS,6bR,13aR)-12-Amino-2,2,6a,6b,9,9,13a-heptamethyl-15-(2-(pyrrolidin-1-ylmethyl)furan-3-yl)-2,3,4,4a,5,6,6a,6b,7,8,8a,9,11,13,13a,13b,14,15b-octadecahydro-1H-chryseno[1,2-f]indazole-4a-carboxylic acid] | 1 (≈ 1.56 µM) | > 1
CC1(C)CC[C@]2(C(=O)O)CC[C@]3(C)C(=C(c4coc(CN5CCCC5)c4)CC4[C@@]5(C)Cc6c(n[nH]c6N)C(C)(C)C5CC[C@]43C)C2C1 (stereo partly drawn) [Compound 38, (4aS,6aS,6bR,13aR)-12-Amino-2,2,6a,6b,9,9,13a-heptamethyl-15-(5-(pyrrolidin-1-ylmethyl)furan-3-yl)-2,3,4,4a,5,6,6a,6b,7,8,8a,9,11,13,13a,13b,14,15b-octadecahydro-1H-chryseno[1,2-f]indazole-4a-carboxylic acid] | 2 (≈ 3.11 µM) | 1 (≈ 1.56 µM)
CC1(C)CC[C@]2(C(=O)O)CC[C@]3(C)C(=C(c4coc(CN5CCNCC5)c4)CC4[C@@]5(C)Cc6c(n[nH]c6N)C(C)(C)C5CC[C@]43C)C2C1 (stereo partly drawn) [Compound 39, (4aS,6aS,6bR,13aR)-12-Amino-2,2,6a,6b,9,9,13a-heptamethyl-15-(5-(piperazin-1-ylmethyl)furan-3-yl)-2,3,4,4a,5,6,6a,6b,7,8,8a,9,11,13,13a,13b,14,15b-octadecahydro-1H-chryseno[1,2-f]indazole-4a-carboxylic acid] | 2 (≈ 3.04 µM) | 1 (≈ 1.52 µM)
CC1(C)CC[C@]2(C(=O)O)CC[C@]3(C)C(=C(c4coc(CN5CCOCC5)c4)CC4[C@@]5(C)Cc6c(n[nH]c6N)C(C)(C)[C@@H]5CC[C@]43C)[C@@H]2C1 (stereo partly drawn) [Compound 40, (4aS,6aS,6bR,8aR,13aR,15bS)-12-Amino-2,2,6a,6b,9,9,13a-heptamethyl-15-(5-(morpholinomethyl)furan-3-yl)-2,3,4,4a,5,6,6a,6b,7,8,8a,9,11,13,13a,13b,14,15b-octadecahydro-1H-chryseno[1,2-f]indazole-4a-carboxylic acid] | 2 (≈ 3.04 µM) | 0.5 (≈ 0.759 µM)
CC1(C)CC[C@]2(C(=O)O)CC[C@]3(C)C(=C(c4ccc(N)nc4)CC4[C@@]5(C)Cc6c(n[nH]c6N)C(C)(C)[C@@H]5CC[C@]43C)[C@@H]2C1 (stereo partly drawn) [Compound 41, (4aS,6aS,6bR,8aR,13aR,15bS)-12-Amino-15-(6-aminopyridin-3-yl)-2,2,6a,6b,9,9,13a-heptamethyl-2,3,4,4a,5,6,6a,6b,7,8,8a,9,11,13,13a,13b,14,15b-octadecahydro-1H-chryseno[1,2-f]indazole-4a-carboxylic acid] | 2 (≈ 3.41 µM) | 1 (≈ 1.71 µM)
COc1ccc(C2=C3[C@@H]4CC(C)(C)CC[C@]4(C(=O)O)CC[C@@]3(C)[C@]3(C)CC[C@H]4C(C)(C)c5n[nH]c(N)c5C[C@]4(C)C3C2)cn1 (stereo partly drawn) [Compound 42, (4aS,6aS,6bR,8aR,13aR,15bS)-12-Amino-15-(6-methoxypyridin-3-yl)-2,2,6a,6b,9,9,13a-heptamethyl-2,3,4,4a,5,6,6a,6b,7,8,8a,9,11,13,13a,13b,14,15b-octadecahydro-1H-chryseno[1,2-f]indazole-4a-carboxylic acid] | 1 (≈ 1.66 µM) | 0.25 (≈ 0.416 µM)
CNc1ccc(C2=C3[C@@H]4CC(C)(C)CC[C@]4(C(=O)O)CC[C@@]3(C)[C@]3(C)CC[C@H]4C(C)(C)c5n[nH]c(N)c5C[C@]4(C)C3C2)cn1 (stereo partly drawn) [Compound 43, (4aS,6aS,6bR,8aR,13aR,15bS)-12-Amino-2,2,6a,6b,9,9,13a-heptamethyl-15-(6-(methylamino)pyridin-3-yl)-2,3,4,4a,5,6,6a,6b,7,8,8a,9,11,13,13a,13b,14,15b-octadecahydro-1H-chryseno[1,2-f]indazole-4a-carboxylic acid] | 1 (≈ 1.67 µM) | 1 (≈ 1.67 µM)

— patent publication EP2712863B1, “Novel inhibitors of bacterial biofilms and related methods” (Sequoia Sciences, Inc., priority 2012, dated 2014)
